In brackets after ≈: the same amount, converted by molar mass. Activity calls are given as the source filed them. The calls are words filed in the database; no cut-off is given here.
Columns and labels:
Pseudomonas aeruginosa [1] = assay: Antimicrobial activity against Pseudomonas aeruginosa ATCC 27853; type: functional
Pseudomonas aeruginosa [2] = assay: Antimicrobial activity against Pseudomonas aeruginosa ATCC 10145; type: functional
Escherichia coli = assay: Antimicrobial activity against Escherichia coli 25922; type: functional
Burkholderia multivorans [3] = assay: Antimicrobial activity against genomovar type II Burkholderia multivorans 249-2; type: functional
Burkholderia multivorans [4] = assay: Antimicrobial activity against genomovar type II Burkholderia multivorans C5393 at 40 ug/disk by disk diffusion growth inhibition assay; type: functional; settings: read-out: DIZ
Burkholderia cenocepacia [5] = assay: Antimicrobial activity against genomovar type III Burkholderia cenocepacia C5424 at 40 ug/disk by disk diffusion growth inhibition assay; type: functional; settings: read-out: DIZ
Burkholderia multivorans [6] = assay: Antimicrobial activity against genomovar type II Burkholderia multivorans ATCC 17616 at 40 ug/disk by disk diffusion growth inhibition assay; type: functional; settings: read-out: DIZ
Burkholderia ambifaria [7] = assay: Antimicrobial activity against genomovar type VII Burkholderia ambifaria CEP0996 at 40 ug/disk by disk diffusion growth inhibition assay; type: functional; settings: read-out: DIZ
Burkholderia dolosa [8] = assay: Antimicrobial activity against genomovar type VI Burkholderia dolosa AU0645 at 40 ug/disk by disk diffusion growth inhibition assay; type: functional; settings: read-out: DIZ
Burkholderia dolosa [9] = assay: Antimicrobial activity against genomovar type VI Burkholderia dolosa E12 at 40 ug/disk by disk diffusion growth inhibition assay; type: functional; settings: read-out: DIZ
Burkholderia multivorans [10] = assay: Antimicrobial activity against genomovar type II Burkholderia multivorans C5393; type: functional
Burkholderia multivorans [11] = assay: Antimicrobial activity against genomovar type II Burkholderia multivorans JTC at 40 ug/disk by disk diffusion growth inhibition assay; type: functional; settings: read-out: DIZ
Burkholderia multivorans [12] = assay: Antimicrobial activity against genomovar type II Burkholderia multivorans CFA11 at 40 ug/disk by disk diffusion growth inhibition assay; type: functional; settings: read-out: DIZ
Burkholderia cenocepacia [13] = assay: Antimicrobial activity against genomovar type III Burkholderia cenocepacia SAL1 at 40 ug/disk by disk diffusion growth inhibition assay; type: functional, organism-based
Burkholderia cenocepacia [14] = assay: Antimicrobial activity against genomovar type III Burkholderia cenocepacia C6433 at 40 ug/disk by disk diffusion growth inhibition assay; type: functional, organism-based
Burkholderia anthina [15] = assay: Antimicrobial activity against genomovar type VIII Burkholderia anthina W92 at 40 ug/disk by disk diffusion growth inhibition assay; type: functional
Burkholderia anthina [16] = assay: Antimicrobial activity against genomovar type VIII Burkholderia anthina AU1293 at 40 ug/disk by disk diffusion growth inhibition assay; type: functional; settings: read-out: DIZ
Burkholderia pyrrocinia [17] = assay: Antimicrobial activity against genomovar type IX Burkholderia pyrrocinia C1469 at 40 ug/disk by disk diffusion growth inhibition assay; type: functional
Burkholderia dolosa [18] = assay: Antimicrobial activity against genomovar type VI Burkholderia dolosa CEP021 at 40 ug/disk by disk diffusion growth inhibition assay; type: functional; settings: read-out: DIZ
[19] = test system: Burkholderia vietnamiensis; assay: Antimicrobial activity against genomovar type V Burkholderia vietnamiensis LMG 16232 at 40 ug/disk by disk diffusion growth inhibition assay; type: functional; settings: read-out: DIZ
Burkholderia stabilis [20] = assay: Antimicrobial activity against genomovar type IV Burkholderia stabilis LMG 18888 at 40 ug/disk by disk diffusion growth inhibition assay; type: functional
Burkholderia stabilis [21] = assay: Antimicrobial activity against genomovar type IV Burkholderia stabilis LMG 14086 at 40 ug/disk by disk diffusion growth inhibition assay; type: functional
Burkholderia multivorans [22] = assay: Antimicrobial activity against genomovar type II Burkholderia multivorans 2492-2 at 40 ug/disk by disk diffusion growth inhibition assay; type: functional; settings: read-out: DIZ
Burkholderia cenocepacia [23] = assay: Antimicrobial activity against genomovar type III Burkholderia cenocepacia J2315 at 40 ug/disk by disk diffusion growth inhibition assay; type: functional, organism-based
Burkholderia cenocepacia [24] = assay: Antimicrobial activity against genomovar type III Burkholderia cenocepacia CEP511 at 40 ug/disk by disk diffusion growth inhibition assay; type: functional, organism-based
Burkholderia anthina [25] = assay: Antimicrobial activity against genomovar type VIII Burkholderia anthina C1765 at 40 ug/disk by disk diffusion growth inhibition assay; type: functional; settings: read-out: DIZ
Burkholderia stabilis [26] = assay: Antimicrobial activity against genomovar type IV Burkholderia stabilis LMG 14294 at 40 ug/disk by disk diffusion growth inhibition assay; type: functional
Burkholderia pyrrocinia [27] = assay: Antimicrobial activity against genomovar type IX Burkholderia pyrrocinia ATCC 39277 at 40 ug/disk by disk diffusion growth inhibition assay; type: functional; settings: read-out: DIZ
Burkholderia multivorans [28] = assay: Antimicrobial activity against genomovar type II Burkholderia multivorans C1576 at 40 ug/disk by disk diffusion growth inhibition assay; type: functional; settings: read-out: DIZ
Burkholderia multivorans [29] = assay: Antimicrobial activity against genomovar type II Burkholderia multivorans CF-A1-1; type: functional
Burkholderia multivorans [30] = assay: Antimicrobial activity against genomovar type II Burkholderia multivorans LMG 13010 at 40 ug/disk by disk diffusion growth inhibition assay; type: functional; settings: read-out: DIZ
Burkholderia multivorans [31] = assay: Antimicrobial activity against genomovar type II Burkholderia multivorans C1576; type: functional
Burkholderia cepacia [32] = assay: Antimicrobial activity against genomovar type I Burkholderia cepacia CEP509 at 40 ug/disk by disk diffusion growth inhibition assay; type: functional, organism-based
Burkholderia cenocepacia [33] = assay: Antimicrobial activity against genomovar type III Burkholderia cenocepacia BC7 at 40 ug/disk by disk diffusion growth inhibition assay; type: functional, organism-based
[34] = test system: Burkholderia vietnamiensis; assay: Antimicrobial activity against genomovar type V Burkholderia vietnamiensis LMG 10929 at 40 ug/disk by disk diffusion growth inhibition assay; type: functional; settings: read-out: DIZ
Burkholderia multivorans [35] = assay: Antimicrobial activity against genomovar type II Burkholderia multivorans JTC; type: functional
Burkholderia ambifaria [36] = assay: Antimicrobial activity against genomovar type VII Burkholderia ambifaria AMMD at 40 ug/disk by disk diffusion growth inhibition assay; type: functional; settings: read-out: DIZ
Burkholderia dolosa [37] = assay: Antimicrobial activity against genomovar type VI Burkholderia dolosa STM1441 at 40 ug/disk by disk diffusion growth inhibition assay; type: functional; settings: read-out: DIZ
Burkholderia anthina [38] = assay: Antimicrobial activity against genomovar type VIII Burkholderia anthina J2552 at 40 ug/disk by disk diffusion growth inhibition assay; type: functional
Burkholderia multivorans [39] = assay: Antimicrobial activity against genomovar type II Burkholderia multivorans ATCC 17616; type: functional
Burkholderia cenocepacia [40] = assay: Antimicrobial activity against genomovar type III Burkholderia cenocepacia ATCC 17765 at 40 ug/disk by disk diffusion growth inhibition assay; type: functional, organism-based
Burkholderia cepacia [41] = assay: Antimicrobial activity against genomovar type I Burkholderia cepacia ATCC 17759 at 40 ug/disk by disk diffusion growth inhibition assay; type: functional, organism-based
Burkholderia cenocepacia [42] = assay: Antimicrobial activity against genomovar type III Burkholderia cenocepacia K562 at 40 ug/disk by disk diffusion growth inhibition assay; type: functional, organism-based
Burkholderia cenocepacia [43] = assay: Antimicrobial activity against genomovar type III Burkholderia cenocepacia PC184 at 40 ug/disk by disk diffusion growth inhibition assay; type: functional; settings: read-out: DIZ
Burkholderia stabilis [44] = assay: Antimicrobial activity against genomovar type IV Burkholderia stabilis C7322 at 40 ug/disk by disk diffusion growth inhibition assay; type: functional; settings: read-out: DIZ
[45] = test system: Burkholderia vietnamiensis; assay: Antimicrobial activity against genomovar type V Burkholderia vietnamiensis FC441 at 40 ug/disk by disk diffusion growth inhibition assay; type: functional; settings: read-out: DIZ
Burkholderia ambifaria [46] = assay: Antimicrobial activity against genomovar type VII Burkholderia ambifaria ATCC 53266 at 40 ug/disk by disk diffusion growth inhibition assay; type: functional; settings: read-out: DIZ
Burkholderia cenocepacia [47] = assay: Antimicrobial activity against genomovar type III Burkholderia cenocepacia J415 at 40 ug/disk by disk diffusion growth inhibition assay; type: functional; settings: read-out: DIZ
Burkholderia multivorans [48] = assay: Antimicrobial activity against genomovar type II Burkholderia multivorans C1962; type: functional
Burkholderia pyrrocinia [49] = assay: Antimicrobial activity against genomovar type IX Burkholderia pyrrocinia BC011 at 40 ug/disk by disk diffusion growth inhibition assay; type: functional; settings: read-out: DIZ
Burkholderia pyrrocinia [50] = assay: Antimicrobial activity against genomovar type IX Burkholderia pyrrocinia ATCC 15958 at 40 ug/disk by disk diffusion growth inhibition assay; type: functional; settings: read-out: DIZ
Burkholderia cepacia [51] = assay: Antimicrobial activity against genomovar type I Burkholderia cepacia ATCC 25416 at 40 ug/disk by disk diffusion growth inhibition assay; type: functional, organism-based
[52] = test system: Burkholderia vietnamiensis; assay: Antimicrobial activity against genomovar type V Burkholderia vietnamiensis PC259 at 40 ug/disk by disk diffusion growth inhibition assay; type: functional; settings: read-out: DIZ
Burkholderia multivorans [53] = assay: Antimicrobial activity against genomovar type II Burkholderia multivorans C1962 at 40 ug/disk by disk diffusion growth inhibition assay; type: functional; settings: read-out: DIZ

POLYMYXIN B
MIC (Pseudomonas aeruginosa [1]): 3.13 µg/mL
MIC (Pseudomonas aeruginosa [2]): 3.13 µg/mL
MIC (Escherichia coli): 0.78 µg/mL

C[C@@H](O)[C@H](NC(=O)c1ccc(C#Cc2ccc(CN3CCOCC3)cc2)cc1)C(=O)NO
MIC (Burkholderia multivorans [3]): 0.1 µg/mL (≈ 0.229 µM)
zone of inhibition at 40 µg/disc (Burkholderia multivorans [4]): 20 mm
zone of inhibition at 40 µg/disc (Burkholderia cenocepacia [5]): 19 mm
zone of inhibition at 40 µg/disc (Burkholderia multivorans [6]): 17 mm
zone of inhibition at 40 µg/disc (Burkholderia ambifaria [7]): 22 mm
zone of inhibition at 40 µg/disc (Burkholderia dolosa [8]): 18 mm
zone of inhibition at 40 µg/disc (Burkholderia dolosa [9]): 23 mm
MIC (Burkholderia multivorans [10]): 3.13 µg/mL (≈ 7.15 µM)
zone of inhibition at 40 µg/disc (Burkholderia multivorans [11]): 23 mm
zone of inhibition at 40 µg/disc (Burkholderia multivorans [12]): 22 mm
diameter of the inhibition zone (DIZ) (Burkholderia cenocepacia [13]): inactive
diameter of the inhibition zone (DIZ) (Burkholderia cenocepacia [14]): inactive
MIC (Pseudomonas aeruginosa [1]): 0.78 µg/mL (≈ 1.78 µM)
diameter of the inhibition zone (DIZ) (Burkholderia anthina [15]): inactive
zone of inhibition at 40 µg/disc (Burkholderia anthina [16]): 10 mm
diameter of the inhibition zone (DIZ) (Burkholderia pyrrocinia [17]): inactive
zone of inhibition at 40 µg/disc (Burkholderia dolosa [18]): 24 mm
zone of inhibition at 40 µg/disc [19]: 23 mm
diameter of the inhibition zone (DIZ) (Burkholderia stabilis [20]): inactive
diameter of the inhibition zone (DIZ) (Burkholderia stabilis [21]): inactive
zone of inhibition at 40 µg/disc (Burkholderia multivorans [22]): 26 mm
MIC (Pseudomonas aeruginosa [2]): 0.78 µg/mL (≈ 1.78 µM)
diameter of the inhibition zone (DIZ) (Burkholderia cenocepacia [23]): inactive
diameter of the inhibition zone (DIZ) (Burkholderia cenocepacia [24]): inactive
zone of inhibition at 40 µg/disc (Burkholderia anthina [25]): 13 mm
diameter of the inhibition zone (DIZ) (Burkholderia stabilis [26]): inactive
MIC (Escherichia coli): 0.05 µg/mL (≈ 0.114 µM)
zone of inhibition at 40 µg/disc (Burkholderia pyrrocinia [27]): 22 mm
zone of inhibition at 40 µg/disc (Burkholderia multivorans [28]): 15 mm
MIC (Burkholderia multivorans [29]): 1.56 µg/mL (≈ 3.57 µM)
zone of inhibition at 40 µg/disc (Burkholderia multivorans [30]): 14 mm
MIC (Burkholderia multivorans [31]): 12.5 µg/mL (≈ 28.6 µM)
diameter of the inhibition zone (DIZ) (Burkholderia cepacia [32]): inactive
diameter of the inhibition zone (DIZ) (Burkholderia cenocepacia [33]): inactive
zone of inhibition at 40 µg/disc [34]: 23 mm
MIC (Burkholderia multivorans [35]): 1.56 µg/mL (≈ 3.57 µM)
zone of inhibition at 40 µg/disc (Burkholderia ambifaria [36]): 23 mm
zone of inhibition at 40 µg/disc (Burkholderia dolosa [37]): 21 mm
diameter of the inhibition zone (DIZ) (Burkholderia anthina [38]): inactive
MIC (Burkholderia multivorans [39]): 6.25 µg/mL (≈ 14.3 µM)
diameter of the inhibition zone (DIZ) (Burkholderia cenocepacia [40]): inactive
diameter of the inhibition zone (DIZ) (Burkholderia cepacia [41]): inactive
diameter of the inhibition zone (DIZ) (Burkholderia cenocepacia [42]): inactive
zone of inhibition at 40 µg/disc (Burkholderia cenocepacia [43]): 18 mm
zone of inhibition at 40 µg/disc (Burkholderia stabilis [44]): 14 mm
zone of inhibition at 40 µg/disc [45]: 9 mm
zone of inhibition at 40 µg/disc (Burkholderia ambifaria [46]): 24 mm
zone of inhibition at 40 µg/disc (Burkholderia cenocepacia [47]): 21 mm
MIC (Burkholderia multivorans [48]): 3.13 µg/mL (≈ 7.15 µM)
zone of inhibition at 40 µg/disc (Burkholderia pyrrocinia [49]): 23 mm
zone of inhibition at 40 µg/disc (Burkholderia pyrrocinia [50]): 20 mm
diameter of the inhibition zone (DIZ) (Burkholderia cepacia [51]): inactive
zone of inhibition at 40 µg/disc [52]: 26 mm
zone of inhibition at 40 µg/disc (Burkholderia multivorans [53]): 24 mm

From ChEMBL document CHEMBL1275257, “Antimicrobial activity of CHIR-090, an inhibitor of lipopolysaccharide biosynthesis, against the Burkholderia cepacia complex” (2010)
